Results published in publication PMC12337661, “PIEZO1 mechanical insensitivity in generalized lymphatic dysplasia with the potential for pharmacological rescue” (iScience, 2025).

Assays:
Assay in all cases: Intracellular Ca2+ measurement (fura-2), T-REx-293 cells stably transfected
Type in all cases: cell-based
R2351Q mPIEZO1 = molecular target: T1, R2351Q mPIEZO1 (Mus musculus, UniProt E2JF22, R2351Q)
T1 construct: expressed in transfected cells
Experimental: (§1) T-REx-293 cell line was transfected with pcDNA4/TO-mPIEZO1 constructs using Lipofectamine 2000 (Invitrogen) as above and treated with 200 μg.mL^−1 zeocin (InvivoGen) to select for stably transfected cells. At least two strongly expressing clonal cell lines were established and tested for each variant. All cell lines were maintained in Dulbecco’s Modified Eagle’s medium (Invitrogen) supplemented with 10% heat-inactivated fetal calf serum (Sigma-Aldrich), penicillin (50 units.mL^−1) and streptomycin (0.5 mg.mL^−1) (Sigma-Aldrich) and grown at 37°C in a humidified 5% CO2 incubator.
(§2) For intracellular Ca^2+ assays, cells were plated at 80–90% confluence in 96-well plates 24 h prior to recordings (6–8 × 10^4 cells per well). […] Cells were washed with SBS and incubated at room temperature for 20 min prior to recordings. Equal volumes of 2x concentrated compounds were injected to test for acute channel activation. Pre-incubation with compounds occurred during the 20 min prior to recordings. To expose cell membranes to hypo-osmolality, an equal volume of hypotonic SBS (containing only 35 mM NaCl) was injected onto the cells. Measurements were made on a fluorescence plate reader (Flexstation III, Molecular Devices) at room temperature (21 ± 2°C). Fura-2 was excited at 340 nm and 380 nm and emitted light collected at 510 nm, with measurements shown as the change in fluorescence (F) ratio (ΔF340/380).
(§3) KC41 (Dooku1) was prepared as described.[28] All purchased chemicals and solvents were used without further purification unless otherwise stated. All compounds were at least 95% pure by 1H NMR. 1H Nuclear Magnetic Resonance spectra were recorded at 500 MHz using a Bruker DRX 500 instrument or at 400 MHz using a Bruker DPX 400. 1H spectra are referenced based on the residual proton in the solvent (e.g., the CHCl3, 0.01% in 99.99% CDCl3). Coupling constants (J) are reported to the nearest 0.1 Hz. 13C NMR spectra were recorded at 125 MHz on 500 MHz spectrometers or at 100 MHz on 400 MHz spectrometers. LC-MS was performed on a Bruker Daltronics running a gradient of increasing acetonitrile (5–95%) in H2O both containing 0.1% formic acid at 1 mL.min^−1, on a short path C18 reverse phase column, detecting compounds with both a diode array detector and a Bruker mass spectrum analyser. HRMS was performed on a Bruker Daltonics micrOTOF using positive electrospray ionisation (ES+). Automated column chromatograph was carried out using a Biotage Isolera Four, using either Sfär Silica D or KP-Silica cartridges. HPLC was performed on an Agilent 1290 Infinity Series equipped with a UV detector and Hyperprep C18 reverse phase column. Key to NMR abbreviations: s (singlet), br s (broad singlet) d (doublet), dd (doublet of doublets), ddd (doublet of doublets of doublets), t (triplet), dt (doublet of triples), q (quartet), m (multiplet), ap. t (apparent triplet). For experiments, Yoda1 and its analogues were prepared as 10 mM stock solutions in 100% dimethyl sulfoxide (DMSO) before serial dilution in DMSO and final dilution in aqueous solution. Cells were exposed to 0.1% DMSO for all concentrations of the compounds from 0 to 10 μM.

WT mPIEZO1 = molecular target: T2, WT mPIEZO1 (Mus musculus, UniProt E2JF22); conditions: 1.5 min exposure
T2 construct: expressed in transfected cells
T2 sequence (E2JF22 whole entry): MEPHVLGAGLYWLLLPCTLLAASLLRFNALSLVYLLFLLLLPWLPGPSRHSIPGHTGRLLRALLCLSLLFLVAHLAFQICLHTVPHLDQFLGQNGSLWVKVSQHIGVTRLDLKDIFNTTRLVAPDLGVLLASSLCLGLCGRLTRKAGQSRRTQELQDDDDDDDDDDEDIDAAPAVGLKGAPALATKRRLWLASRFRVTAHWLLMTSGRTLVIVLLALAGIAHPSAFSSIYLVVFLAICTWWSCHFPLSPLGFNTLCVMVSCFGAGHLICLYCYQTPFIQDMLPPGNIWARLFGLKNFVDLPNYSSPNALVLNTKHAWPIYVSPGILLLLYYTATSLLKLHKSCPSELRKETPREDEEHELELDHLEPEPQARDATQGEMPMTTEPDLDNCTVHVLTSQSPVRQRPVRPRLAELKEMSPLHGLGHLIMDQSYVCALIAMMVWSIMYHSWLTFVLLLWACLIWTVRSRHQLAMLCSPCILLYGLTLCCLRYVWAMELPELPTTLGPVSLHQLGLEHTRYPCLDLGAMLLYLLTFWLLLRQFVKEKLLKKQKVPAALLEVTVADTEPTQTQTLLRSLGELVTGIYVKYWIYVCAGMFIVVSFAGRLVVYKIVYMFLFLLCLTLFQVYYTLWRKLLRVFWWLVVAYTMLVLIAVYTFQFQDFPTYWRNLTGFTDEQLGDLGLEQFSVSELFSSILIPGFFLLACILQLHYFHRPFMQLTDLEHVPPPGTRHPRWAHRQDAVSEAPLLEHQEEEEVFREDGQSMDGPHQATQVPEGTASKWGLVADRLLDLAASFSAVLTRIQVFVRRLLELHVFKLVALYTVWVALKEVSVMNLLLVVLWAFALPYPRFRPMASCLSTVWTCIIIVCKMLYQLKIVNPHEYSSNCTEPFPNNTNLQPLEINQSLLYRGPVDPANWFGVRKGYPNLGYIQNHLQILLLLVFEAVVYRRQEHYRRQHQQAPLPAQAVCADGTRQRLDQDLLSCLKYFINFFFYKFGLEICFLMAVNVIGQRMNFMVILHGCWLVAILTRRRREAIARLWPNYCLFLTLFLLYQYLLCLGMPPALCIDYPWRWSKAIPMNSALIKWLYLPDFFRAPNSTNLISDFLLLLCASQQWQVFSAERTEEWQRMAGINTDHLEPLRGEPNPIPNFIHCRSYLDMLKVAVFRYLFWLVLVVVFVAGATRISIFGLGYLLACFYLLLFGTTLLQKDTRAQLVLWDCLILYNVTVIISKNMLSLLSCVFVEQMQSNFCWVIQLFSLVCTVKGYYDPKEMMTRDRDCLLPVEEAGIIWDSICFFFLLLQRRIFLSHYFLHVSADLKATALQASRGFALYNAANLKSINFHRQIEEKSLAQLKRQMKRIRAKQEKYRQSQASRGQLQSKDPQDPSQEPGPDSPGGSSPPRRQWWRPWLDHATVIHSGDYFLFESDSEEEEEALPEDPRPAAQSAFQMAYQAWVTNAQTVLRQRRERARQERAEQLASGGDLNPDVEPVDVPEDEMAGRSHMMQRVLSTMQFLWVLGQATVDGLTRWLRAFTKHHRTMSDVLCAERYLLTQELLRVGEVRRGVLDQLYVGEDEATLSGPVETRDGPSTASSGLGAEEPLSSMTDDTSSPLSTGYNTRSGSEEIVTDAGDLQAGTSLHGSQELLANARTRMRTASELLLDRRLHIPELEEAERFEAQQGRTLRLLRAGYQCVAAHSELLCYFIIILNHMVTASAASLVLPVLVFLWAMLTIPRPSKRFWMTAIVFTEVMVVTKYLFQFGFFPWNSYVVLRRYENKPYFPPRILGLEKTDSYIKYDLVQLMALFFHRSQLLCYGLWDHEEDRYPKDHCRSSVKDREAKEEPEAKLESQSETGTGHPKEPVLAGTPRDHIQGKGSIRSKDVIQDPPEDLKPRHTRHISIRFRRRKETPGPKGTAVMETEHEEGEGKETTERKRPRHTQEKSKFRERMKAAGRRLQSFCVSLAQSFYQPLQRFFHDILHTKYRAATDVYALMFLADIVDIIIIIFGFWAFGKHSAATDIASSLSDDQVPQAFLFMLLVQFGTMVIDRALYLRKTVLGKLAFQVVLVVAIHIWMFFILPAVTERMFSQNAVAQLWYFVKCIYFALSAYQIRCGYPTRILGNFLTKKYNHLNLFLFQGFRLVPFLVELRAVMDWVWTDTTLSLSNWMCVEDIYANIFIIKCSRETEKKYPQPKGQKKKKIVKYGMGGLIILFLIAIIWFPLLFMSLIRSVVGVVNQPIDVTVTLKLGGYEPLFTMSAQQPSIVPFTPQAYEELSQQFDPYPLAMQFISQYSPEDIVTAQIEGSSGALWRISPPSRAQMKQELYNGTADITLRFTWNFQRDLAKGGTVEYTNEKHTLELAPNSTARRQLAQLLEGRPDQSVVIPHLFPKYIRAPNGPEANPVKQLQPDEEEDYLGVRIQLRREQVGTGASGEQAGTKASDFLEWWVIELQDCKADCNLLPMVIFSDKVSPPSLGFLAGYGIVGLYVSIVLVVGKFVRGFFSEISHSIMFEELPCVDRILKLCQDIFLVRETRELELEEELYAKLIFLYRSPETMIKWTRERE
Experimental: as §1, §2, §3

E824V mPIEZO1 = molecular target: T3, E824V mPIEZO1 (Mus musculus, UniProt E2JF22, E824V); conditions: versus WT
T3 construct: expressed in transfected cells
T3 sequence (E2JF22 whole entry E824V): as the sequence (E2JF22 whole entry) above, with E824V counted along it
Experimental: as §1, §2, §3

G1994D mPIEZO1 = molecular target: T4, G1994D mPIEZO1 (Mus musculus, UniProt E2JF22, G1994D); conditions: for Mean normalise fluorescence (Figure 5d): G1994D
T4 construct: expressed in transfected cells
T4 sequence (E2JF22 whole entry G1994D): as the sequence (E2JF22 whole entry) above, with G1994D counted along it
Experimental: as §1, §2, §3

[1] = long (20 min) exposure, normalized to 3 μM Yoda1

T1 sequence (E2JF22 whole entry R2351Q): as the sequence (E2JF22 whole entry) above, with R2351Q counted along it

Mean (Ca2+ signal time course, Figure 4f) (R2351Q mPIEZO1; R2351Q, 3 µM, time 85 s): 0.9118
Mean (Ca2+ signal time course, Figure 4f) (R2351Q mPIEZO1; R2351Q, 3 µM, time 90 s): 0.9125
Mean (Ca2+ signal time course, Figure 4f) (R2351Q mPIEZO1; R2351Q, 3 µM, time 95 s): 0.9634
Mean (Ca2+ signal time course, Figure 4f) (R2351Q mPIEZO1; R2351Q, 3 µM, time 100 s): 1.007
Mean (Ca2+ signal time course, Figure 4f) (R2351Q mPIEZO1; R2351Q, 3 µM, time 105 s): 0.9869
Mean (Ca2+ signal time course, Figure 4f) (R2351Q mPIEZO1; R2351Q, 3 µM, time 110 s): 1.018
Mean (Ca2+ signal time course, Figure 4f) (R2351Q mPIEZO1; R2351Q, 3 µM, time 115 s): 0.9551
Mean (Ca2+ signal time course, Figure 4f) (R2351Q mPIEZO1; R2351Q, 3 µM, time 120 s): 0.9921
Mean (Ca2+ signal time course, Figure 4f) (R2351Q mPIEZO1; R2351Q, 3 µM, time 125 s): 1.006
Mean (Ca2+ signal time course, Figure 4f) (R2351Q mPIEZO1; R2351Q, 3 µM, time 130 s): 0.9688
Mean normalise fluorescence (R2351Q mPIEZO1; R2351Q, 20 min exposure, Yoda1 0.03 µM, Figure 4d): 0.08092
Mean normalise fluorescence (R2351Q mPIEZO1; R2351Q, 20 min exposure, Yoda1 0.1 µM, Figure 4d): -0.0159
Mean normalise fluorescence (R2351Q mPIEZO1; R2351Q, 20 min exposure, Yoda1 0.3 µM, Figure 4d): 0.3248
Mean normalise fluorescence (R2351Q mPIEZO1; R2351Q, 20 min exposure, Yoda1 1 µM, Figure 4d): 0.9747
Mean normalise fluorescence (R2351Q mPIEZO1; R2351Q, 20 min exposure, Yoda1 3 µM, Figure 4d): 1
Mean normalise fluorescence (R2351Q mPIEZO1; R2351Q, 20 min exposure, Yoda1 10 µM, Figure 4d): 0.9987
EC50 (R2351Q mPIEZO1; [1]): 420 nM
Mean normalise fluorescence (R2351Q mPIEZO1; short 1.5-min exposure, 0.03 µM): 0.00392
Mean normalise fluorescence (R2351Q mPIEZO1; short 1.5-min exposure, 0.1 µM): 5.49E-04
Mean normalise fluorescence (R2351Q mPIEZO1; short 1.5-min exposure, 0.3 µM): 0.02154
Mean normalise fluorescence (R2351Q mPIEZO1; short 1.5-min exposure, 1 µM): 0.1259
Mean normalise fluorescence (R2351Q mPIEZO1; short 1.5-min exposure, 3 µM): 0.401
Mean normalise fluorescence (R2351Q mPIEZO1; short 1.5-min exposure, 5 µM): 0.6595
Mean normalise fluorescence (R2351Q mPIEZO1; short 1.5-min exposure, 10 µM): 1
Effect on mPIEZO1 channel function (R2351Q mPIEZO1; versus WT): loss of MA: LOF; reduced Y1 potency
Mean normalise fluorescence (WT mPIEZO1; 0.01 µM): 0.01111
Mean normalise fluorescence (WT mPIEZO1; 0.03 µM): 0.04107
Mean normalise fluorescence (WT mPIEZO1; 0.1 µM): 0.2255
Mean normalise fluorescence (WT mPIEZO1; 0.3 µM): 0.6112
Mean normalise fluorescence (WT mPIEZO1; 1 µM): 0.8879
Mean normalise fluorescence (WT mPIEZO1; 3 µM): 0.9862
Mean normalise fluorescence (WT mPIEZO1; 5 µM): 1.0356
Mean normalise fluorescence (WT mPIEZO1; 10 µM): 1
EC50 (WT mPIEZO1; fitted Hill equation): 240 nM
Effect on mPIEZO1 channel function (E824V mPIEZO1): reduced Y1 potency
Mean normalise fluorescence (Figure 5d) (G1994D mPIEZO1; Yoda1 concentration 0.01 µM): 0.00218
Mean normalise fluorescence (Figure 5d) (G1994D mPIEZO1; Yoda1 concentration 0.03 µM): 0.00674
Mean normalise fluorescence (Figure 5d) (G1994D mPIEZO1; Yoda1 concentration 0.1 µM): 0.01862
Mean normalise fluorescence (Figure 5d) (G1994D mPIEZO1; Yoda1 concentration 0.3 µM): 0.1159
Mean normalise fluorescence (Figure 5d) (G1994D mPIEZO1; Yoda1 concentration 1 µM): 0.3636
Mean normalise fluorescence (Figure 5d) (G1994D mPIEZO1; Yoda1 concentration 3 µM): 0.6853
Mean normalise fluorescence (Figure 5d) (G1994D mPIEZO1; Yoda1 concentration 5 µM): 0.8762
Mean normalise fluorescence (Figure 5d) (G1994D mPIEZO1; Yoda1 concentration 10 µM): 1
EC50 (G1994D mPIEZO1; [1]): 310 nM
SMILES: Clc1cccc(Cl)c1CSc1nnc(-c2cnccn2)s1 [Yoda1]
Effect on mPIEZO1 channel function (G1994D mPIEZO1; versus WT): reduced MA: LOF; reduced inactivation: GOF; reduced Y1 potency
